Data on 88 compounds can be found in a melting point compilation (Tetko et al.; mined from patent text by program, amines drawn as free bases though some values may be those of a salt).

By melting point is commonly meant the temperature of the solid-liquid transition.

In turn, `O=C(Nc1ccc(S(=O)(=O)Nc2ncccn2)cc1)c1ccccc1SSc1ccccc1C(=O)Nc1ccc(S(=O)(=O)Nc2ncccn2)cc1` yielded a melting point of 280 °C. Then `Nc1ncc(C#Cc2ccc(Cl)cc2)c(Oc2ccc(O)cc2)n1`, with 250 to 251 °C; and `COC(=O)C(N)CSCc1ccccc1` (stereo not drawn), with 84 to 87 °C; and `COc1ccc(N2C(=O)[C@H](O)[C@@H]2CC(C)C)cc1`, with 160 to 163 °C. Turning to `Cc1c(C(F)(F)F)noc1NS(=O)(=O)c1ccccc1`, the melting point was in the range of 99.5 to 100 °C. `CCNc1nc(N)nc2c1ncn2C1C=CC(CO)C1` (stereo not drawn) came in with a melting point of 171 to 173 °C. `FC(F)(F)c1ccc(-c2cc(Cl)c3ccccc3n2)cc1` registered a melting point of 53 to 55 °C. Compound `CCc1cc2c(s1)SCCc1cc(=O)[nH]nc1-2` had a melting point of 256 to 258 °C. The compound `Cn1nnnc1SCC1c2cc(O)c(O)cc2CCN1C(=O)OCC(Cl)(Cl)Cl` (stereo not drawn) registered a melting point of 201 to 207 °C. Then `CC(C)(C)C(=O)OCn1nnc(-c2cc(Br)ccc2NC(=O)c2cccc(S(=O)(=O)N3CCOCC3)c2)n1`, with 210 to 212 °C; and `N#Cc1cc(/C=C/C(c2cc(Cl)c(Cl)c(Cl)c2)C(F)(F)F)ccc1-n1cnc(N)n1` (stereo not drawn), with 72 to 75 °C. In the case of `O=C(Nc1cnc(OCCO)c(NC(=O)OCCCl)c1)OCCCl`, the melting point lay within 176 to 178 °C. `CCCCNC(=O)NS(=O)(=O)C(C)=Cc1ccccc1` gave a melting point of 135 to 136 °C. Turning to `C=CCNC(=O)[C@H]1NCSC1(C)C`, the melting point was in the range of 45 to 47 °C.

Compound `CCCCCCCCCCOc1ccccc1C(N)=O` returned a melting point of 58 to 59 °C.

`COC(=O)C1=C[C@@H](OC(C)C)[C@H](NC(C)=O)[C@@H](CC2CO2)C1` (stereo partly drawn) registered a melting point of 130 to 131 °C. `COC(=O)c1cccc(-c2nc(COc3ccc(CON4CC(C=O)=CN4c4ccccc4)cc3OC)c(C)o2)c1` returned a melting point of 164 to 165 °C. The compound `CCOCc1nc2c(N)nc3cc(OCc4cscn4)ccc3c2n1CC(C)(C)O` gave a melting point of 190 to 191 °C. With `COCCNC(=O)c1ccc(C(=O)N2CCN(c3ncccc3NC(C)C)CC2)cc1`, the melting point lay within 120 to 121 °C. On to `CCCCCCCCN(C[C@H]1CCC[C@H](CN(CCCCCCCC)C(=O)Nc2ccc(N(C)C)cc2)C1)C(=O)Nc1ccc(N(C)C)cc1` (relative stereo), for which the melting point is 115 to 119 °C. In turn, `CCCCNC(=O)OC1c2ncccc2C(=O)N1c1ccc2ccc(Cl)nc2n1` (stereo not drawn) displayed a melting point of 215 °C. In turn, `COc1ccc2c(c1)c(Cc1cc(=O)n(-c3cccc(C(F)(F)F)c3)[nH]1)c(C)n2C(=O)c1ccccc1` had a melting point of 60 to 64.5 °C. For `CCCc1ncc2cc(Cl)nc(OC)n12`, the melting point was 76 to 77 °C. Then `Cc1cccc2sc(=NC(=O)C(F)(F)F)n(N)c12`, with 160 to 161 °C.

In the case of `COc1ccc(/C=C/c2nc3c([nH]2)c(=O)n(C)c(=O)n3C)cc1Br`, the melting point is above 280 °C. Consider `CCN(C(=O)c1cc(Cl)c(NC(=O)C(F)(F)F)cc1OC)C1CCN(Cc2ccccc2)CC1`, for which the melting point fell in the range of 198 to 200 °C. Then `CCCCCCCCOC(=O)Oc1ccc(C(=O)O)cc1`, with 126 °C. As to `CCOC(=O)c1c(C)cc(O)c(C(=O)OCC)c1O`, the melting point is 61 to 62 °C. With `NS(=O)(=O)Oc1ccc(C(=O)c2ccc(OS(N)(=O)=O)cc2)cc1`, the melting point lay in the range of 182 to 185 °C.

As to `C[C@H]1CCCN(CCCOc2ccc(-c3nc4cccnc4c(=O)n3C)cc2)C1`, the melting point is 83.5 to 88.5 °C. Consider `COc1ccccc1N1CCN(c2cc3nc(C(=O)O)c(=O)[nH]c3cc2[N+](=O)[O-])CC1`, for which the melting point was in the range of 204 to 206 °C. In the case of `C=C(C)c1ccccc1S(N)(=O)=O`, the melting point was 76 to 85 °C. `CC(O)C1CCC(CNC(=O)OCc2ccccc2)CC1` (stereo not drawn) showed a melting point of 83 to 84 °C.

Turning to `CCCCCCCCCCCCSCCO`, the melting point was 31 to 32 °C. In turn, `CC(C)c1nn(-c2ccc(C(F)(F)F)cn2)cc1CCCOc1cccc(CCC(=O)O)c1` gave a melting point of 102 to 103 °C. `CC1(C)CC(=O)C(C(=O)Nc2ccc(Cl)c(Cl)c2)C(=O)O1` (stereo not drawn) had a melting point of 212 to 215 °C. `O=c1c2c(Cl)cc(Cl)cc2n(Cc2ccccc2)c(=O)n1Cc1cccc2ccccc12` had a melting point of 220 to 226 °C. `CCCCCCCCCCCCCc1cc(C(=O)OCCC)c[nH]1` yielded a melting point of 51 to 52 °C. For `CNC1=NS(=O)(=O)N=C1NCCSCc1ccc(CN(C)C)s1`, the melting point lay within 60.5 to 66 °C.

Regarding `CN1C(=O)C2(COc3cc4c(cc32)OCCO4)c2c(C(N)=O)cccc21` (stereo not drawn), the melting point is above 250 °C. Compound `Sc1nccn1Cc1cccs1` had a melting point of 130 to 131 °C. `CCCCN(Cc1ccc(-c2ccccc2-c2nnn[nH]2)cc1)c1ncc(C(=O)OCC)s1` had a melting point of 65 to 70 °C. Consider `Cc1nc(-c2ccc(N3CC(C(=O)O)OC3=O)cc2)no1` (stereo not drawn), for which the melting point was in the range of 215 to 218 °C.

Compound `CC(C)NC(=O)c1ccc(-c2cnc3[nH]c(=O)n(CC4CCCCC4)c3n2)cc1` came in with a melting point of 264 to 268 °C. Turning to `O=C(O)[C@H](Cc1ccc(C(F)(F)F)cc1)[C@@H](O)c1cccc2ccccc12` (racemic), the melting point was in the range of 151 to 152 °C. As to `Oc1ccccc1Oc1ncc(Cl)cn1`, the melting point lay within 131 to 139 °C. `COc1ccc(C(=O)NC(=S)NCc2ccccc2C(N)=O)cc1` gave a melting point of 140 to 143 °C.

In the case of `CC(C)(C)Nc1c(NCc2ccc(Cl)c(Cl)c2)c(=O)c1=O`, the melting point was 302 to 303 °C. On to `Cc1oc(-c2cccc(-c3ccc(C(=O)O)cc3)c2)nc1CCOc1cccc(OC(C)(C)C(=O)O)c1`, for which the melting point was 184 °C.

On to `COC(=O)c1c(C)oc(C)c1-c1ccc(F)cc1`, for which the melting point lay in the range of 34 to 35 °C. Consider `CC(=O)NCC1CN(c2ccc(N3CCC(O)C(C)(C)C3)c(F)c2)C(=O)O1` (stereo not drawn), for which the melting point is 70 to 72 °C.

On to `COc1cccc(Oc2cc(-c3ccc(C(F)(F)F)cc3)ccn2)c1`, for which the melting point is 77.5 to 79.6 °C. The compound `CCCCN(Cc1ccc(-c2ccccc2-c2nnnn2C(c2ccccc2)(c2ccccc2)c2ccccc2)cc1)c1nc(C)ccc1C(=O)OCC` came in with a melting point of 120 to 122 °C. As for `CCCCn1c(=O)cc(NN)n(Cc2ccc(OC)cc2)c1=O`, the melting point lay within 167 to 170 °C. For the compound `Clc1ccc(C=NN=c2ccn(-c3ccc(Cl)cc3)cc2)cc1`, the melting point is 165 to 166 °C. Take `O=C(O)c1ccccc1N1CCN(CC(O)COc2ccc(O)cc2)CC1` (stereo not drawn): the melting point was 235 to 237 °C. Then `CN(c1ccc(Cl)nc1)S(C)(=O)=O`, with 87 to 90 °C; and `Cc1nc(N2CCc3nc(C)sc3CC2)c([N+](=O)[O-])c(=O)[nH]1`, with above 200 °C; and `Cc1ccc(C2=NC(C)(C(C)C)C(=O)N2)cc1` (stereo not drawn), with 151 to 154 °C. With `CCOC(=O)c1ccc(N(Cc2ccc(Cl)cc2)C(C)=O)cc1` the figure was 65 to 66 °C; with `O=C(O)Cc1cc(Cl)c(Cl)cc1[N+](=O)[O-]`, 119 to 120 °C; with `COc1cccc(Oc2c(NS(=O)(=O)c3ccc(C(C)(C)C)cc3)nc(C(=O)Nc3ccccc3)nc2OCCO)c1`, 143 °C.

The compound `O=C(c1ccccc1)n1cc(-c2ccccc2)c2ccccc21` returned a melting point of 154 to 156 °C. Consider `CC(=O)Nc1nc(CCc2ccc(N)cc2)c(-c2ccc(S(C)(=O)=O)cc2)s1`, for which the melting point lay within 202 to 204 °C. `Clc1cccc(N2CCN(CCCc3nnn[nH]3)CC2)c1` registered a melting point of 162 to 164 °C.

`COC(=O)c1c(C(=O)OC)c(-c2ccc(Cl)cc2)n2c1Cc1c(n(C)c3ccccc13)C2` showed a melting point of 264 to 265 °C. `CC(=O)Nc1cc(C)c(O)cc1C` registered a melting point of 183 °C. With `CNc1nc(-c2cccc(-c3ccc(C)c(C)c3)c2)c2cc(OC)c(OC)cc2n1` the figure was 149 to 151 °C; with `FC(F)(F)Oc1ccc(-n2ccc(CBr)n2)cc1`, 71 to 73 °C. With `CC1=NN(c2c(Cl)cc(Cl)cc2Cl)C(=O)C1` the figure was 178 to 180 °C. `C=C(C)C(=O)OCCNC(=O)Oc1cccc(OC(=O)c2ccccc2)c1`: the melting point fell in the range of 57.5 to 61.5 °C. With `Nc1ncnc2c1c(-c1cc(O)cc(F)c1)nn2Cc1oc2ccccc2c(=O)c1-c1cccc(F)c1` the figure was 235 to 237 °C; with `O=C(Nc1ccc(C2=CCN(C(=O)Nc3ccc(OCCO)cc3Cl)CC2)cc1)Nc1ccccc1F`, 173 to 178 °C; with `CC(C)(C)OC(=O)N1[C@@H](CC2CCCCC2)[C@H](CC2SCCCS2)OC1(C)C`, 104 to 106 °C.

`COC(=O)COC(=O)COc1ccc(-c2coc3cc(OCC(=O)OCC(=O)OC)ccc3c2=O)cc1` returned a melting point of 111 to 114 °C. Then `c1cn2nc(N3CCOCC3)c3c(c2n1)CCCC3`, with 160 to 161 °C; and `CC1CCN(c2ccc(N)cc2C(O)c2ccc(Cl)cc2)CC1` (stereo not drawn), with 89 °C. The compound `COc1ccc(S(=O)(=O)N(CCC(N)=O)c2ccc(Cl)cc2Cc2c(F)cccc2F)cc1OC` gave a melting point of 189 °C.

As for `CN(C)[C@@H]1Cc2c(O)cccc2C[C@H]1O` (relative stereo), the melting point lay within 179 to 183 °C. The compound `CCCCCCCCCCCCCCCCCCCCSCCCO` showed a melting point of 58 to 60 °C. For the compound `CSCCC(NC(=O)c1ccc(Cl)cc1)NC(=NC#N)Nc1cccnc1` (stereo not drawn), the melting point lay in the range of 104 to 105 °C. Compound `COc1ccc2[nH]c(C=Cc3ccc(OC)c(OC)c3)nc2c1` returned a melting point of 246 to 249 °C. `Nc1c2c(nc3ccc(F)cc13)CCCC2`: the melting point is 229 to 230 °C. As to `COC(=O)c1csc(C(=O)CBr)c1OC(=O)c1ccccc1`, the melting point is 115 to 118 °C. Then `CC1=NN=C(C=Cc2cccc(F)c2)c2cc3c(cc2C1)OCO3`, with 161 to 162 °C.

Compound `Cc1ncc(CSC(=O)c2ccccc2)c(C=O)c1O` had a melting point of 127 to 130 °C. `C[C@@H](Nc1ncnc2[nH]c(-c3ccc(CN(CCO)CCO)cc3)cc12)c1ccccc1` displayed a melting point of 194 to 197 °C. Then `COC(=O)Cc1c(C(=O)OC)ccn1CCOS(C)(=O)=O`, with 99 to 101 °C.
